The results in this text go back to paper PMC8395308 (International Journal of Molecular Sciences, 2021).

Structures are written as SMILES. Values joined by “and” are separate entries in the source; they are usually repeats but may differ in a detail not shown here. Identical values can stand only once. “Also recorded” adds a separate entry of the source. Counter-ions that a name gives are not always drawn.

Test [1] deals with receptor binding domain (HC fragment) of BoNT/A binding to the fourth luminal domain of SV2C (Clostridium botulinum, UniProt P0DPI0). In words: biochemical. More on the design: species or system Mus musculus. To be noted: for IC50: IC50 (µM), TSP-RSP interaction inhibition; for inhibition at 100 µM: read-out: Maximal Inhibition (%).
receptor binding domain (HC fragment) of BoNT/A binding to the fourth luminal domain of SV2C, sequence (P0DPI0 872-1296 limits assumed): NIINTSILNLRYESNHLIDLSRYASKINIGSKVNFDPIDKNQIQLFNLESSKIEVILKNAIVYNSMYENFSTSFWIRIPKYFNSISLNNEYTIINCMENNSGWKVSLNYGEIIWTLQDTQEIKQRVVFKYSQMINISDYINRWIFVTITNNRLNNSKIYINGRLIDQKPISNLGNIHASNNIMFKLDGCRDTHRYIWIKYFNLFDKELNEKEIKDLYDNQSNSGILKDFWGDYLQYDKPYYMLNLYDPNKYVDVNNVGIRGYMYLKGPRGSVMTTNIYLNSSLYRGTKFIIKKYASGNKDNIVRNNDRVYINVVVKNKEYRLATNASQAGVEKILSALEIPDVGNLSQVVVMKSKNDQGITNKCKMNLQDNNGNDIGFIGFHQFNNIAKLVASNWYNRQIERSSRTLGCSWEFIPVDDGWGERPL
Another test addresses BoNT/A (Clostridium botulinum, UniProt P0DPI0). Also on record: species or system CD-1 mice. To be noted: mouse, in vivo; for Survival (protection) of treated mice / Therapeutic effect versus solvent (log-rank test): ip.
A further test deals with BoNT/E. More on the design: species or system CD-1 mice. Conditions: mouse, in vivo.

BoNT/A, sequence (P0DPI0 2-448 limits assumed): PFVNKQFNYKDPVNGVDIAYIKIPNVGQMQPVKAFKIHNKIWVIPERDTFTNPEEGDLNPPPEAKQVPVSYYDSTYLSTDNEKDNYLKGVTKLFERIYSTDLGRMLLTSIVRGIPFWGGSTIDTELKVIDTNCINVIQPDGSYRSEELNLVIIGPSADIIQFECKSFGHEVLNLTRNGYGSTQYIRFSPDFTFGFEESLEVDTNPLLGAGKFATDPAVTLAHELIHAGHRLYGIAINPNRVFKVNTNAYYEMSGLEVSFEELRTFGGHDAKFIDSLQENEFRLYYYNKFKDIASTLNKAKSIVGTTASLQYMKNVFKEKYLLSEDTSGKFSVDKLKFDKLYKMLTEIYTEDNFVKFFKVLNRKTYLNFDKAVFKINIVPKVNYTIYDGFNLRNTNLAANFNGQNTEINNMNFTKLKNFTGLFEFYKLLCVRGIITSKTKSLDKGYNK
BoNT/A, sequence (P0DPI0 449-1296 limits assumed): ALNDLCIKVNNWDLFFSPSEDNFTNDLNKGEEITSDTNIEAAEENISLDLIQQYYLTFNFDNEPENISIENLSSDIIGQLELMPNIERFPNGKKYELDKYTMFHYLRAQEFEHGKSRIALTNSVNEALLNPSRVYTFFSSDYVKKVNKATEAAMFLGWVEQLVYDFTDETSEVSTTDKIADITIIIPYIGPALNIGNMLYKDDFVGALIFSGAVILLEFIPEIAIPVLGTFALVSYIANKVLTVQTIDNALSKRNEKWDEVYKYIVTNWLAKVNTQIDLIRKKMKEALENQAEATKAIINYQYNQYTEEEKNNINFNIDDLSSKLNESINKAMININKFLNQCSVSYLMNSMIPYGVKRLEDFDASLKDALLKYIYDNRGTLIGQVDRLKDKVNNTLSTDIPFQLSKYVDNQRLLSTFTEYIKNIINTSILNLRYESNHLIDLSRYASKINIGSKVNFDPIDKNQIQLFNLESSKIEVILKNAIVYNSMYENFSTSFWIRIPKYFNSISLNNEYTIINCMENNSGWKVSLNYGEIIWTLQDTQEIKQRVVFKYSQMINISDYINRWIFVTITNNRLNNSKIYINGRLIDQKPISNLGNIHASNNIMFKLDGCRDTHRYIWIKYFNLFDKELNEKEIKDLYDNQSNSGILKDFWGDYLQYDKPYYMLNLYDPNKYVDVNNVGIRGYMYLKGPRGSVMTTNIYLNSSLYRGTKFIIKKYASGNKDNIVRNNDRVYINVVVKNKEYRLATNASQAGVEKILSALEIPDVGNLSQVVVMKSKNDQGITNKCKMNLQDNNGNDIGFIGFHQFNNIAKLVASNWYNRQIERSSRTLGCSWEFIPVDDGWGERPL

As to `NC(Cc1cc(O)c(O)cc1O)C(=O)O` (racemic) [6-OHD, 6-Hydroxy-DL-DOPA], in test [1], the IC50 came to 1 µM and the inhibition at 100 µM amounted to 98%. Moreover, on BoNT/A, the “median survival time (hr) treated” value turned out to be 28.7 h, the “survival time of the nonsurviving treated animals” value was determined as 28.7 h, the “Survival (protection) of treated mice” value was found to be 33% and the “Therapeutic effect versus solvent (log-rank test)” value was “Significant beneficial therapeutic effects”. For the same molecule, in the test on BoNT/E, the “median TTD / median survival time of treated mice” value (shortened to “median TTD / median survival time”) is listed as 9.8 h and the “median survival time (hr) treated” value worked out at 9.8 h.

As to `O=C(O)C1=CC(=C(c2ccc(O)c(C(=O)O)c2)c2ccc(O)c(C(=O)O)c2)C=CC1=O` [ATA, Aurintricarboxylic acid], in test [1], the IC50 stood at 2 µM and the inhibition at 100 µM was 100%. Besides, at BoNT/A, the “survival time of the nonsurviving treated animals” value is given as 96 h; the “Survival (protection) of treated mice” value is 92% and 91.6%; the “Therapeutic effect versus solvent (log-rank test)” value was “Significant beneficial therapeutic effects”. Further, in the test with BoNT/E (ip), the “Survival of treated mice” value is on record as 100% and the “Therapeutic effect versus solvent (log-rank test)” value is given as “fully protective; also recorded: completely protected”.

With `NC(CO)C(=O)NNCc1ccc(O)c(O)c1O` (stereo not drawn) [Benserazide, Benserazide hydrochloride], in test [1], the IC50 came out at 18 µM and the inhibition at 100 µM is 95%. For the same molecule, on BoNT/A, the “median survival time (hr) treated” value is 29.8 h, the “median survival time / TTD in the treated group” value is 29.8 h and the “Therapeutic effect versus solvent (log-rank test)” value was “Significant beneficial therapeutic effects”. Also, in the test on BoNT/E, the “median TTD / median survival time” value was determined as 10.7 h and the “median survival time (hr) treated” value was 10.7 h.

Take `CO/N=C(\C(=O)N[C@@H]1C(=O)N2C(C(=O)O)=C(COC(C)=O)CS[C@H]12)c1csc(N)n1` [Cefotaxime sodium]: in test [1], the “Maximal Inhibition (%)” value came out at 91%, the IC50 was 3 µM and the inhibition at 100 µM was roughly 90%. On BoNT/A, the “median survival time (hr) treated” value came to 21.0 h and the “Therapeutic effect versus solvent (log-rank test)” value is recorded as “did not exert beneficial therapeutic effects”.

For `CC(=O)OCC1=C(C(=O)O)N2C(=O)[C@@H](NC(=O)CCC[C@@H](N)C(=O)O)[C@H]2SC1` [Cephalosporin C zinc salt], in test [1], the IC50 stood at 27 µM and the inhibition at 100 µM is roughly 90%.

Turning to `Nc1nc2[nH]c(=O)cnc2c(=O)[nH]1` [Isoxanthopterin], in test [1], the concentration for half-maximal inhibition (IC50) is 34 µM and the inhibition at 100 µM was determined as 68%. Moreover, on BoNT/A, the “median survival time (hr) treated” value amounted to 26.67 h and the “Therapeutic effect versus solvent (log-rank test)” value is listed as “did not exert beneficial therapeutic effects”.

Regarding `C=CC1=C(C)c2cc3[nH]c(cc4nc(cc5[nH]c(cc1n2)c(C)c5CCC(=O)O)C(CCC(=O)O)=C4C)c(C)c3C=C` [PPIX, Protoporphyrin IX disodium], in test [1], the IC50 was 84 µM and the inhibition at 100 µM was roughly 80%. In addition, on BoNT/A, the “median survival time (hr) treated” value came out at 26.0 h, the “median survival time / TTD in the treated group” value is given as 26.0 h and the “Therapeutic effect versus solvent (log-rank test)” value was “Significant beneficial therapeutic effects”. In the test with BoNT/E, the “median TTD / median survival time” value is 10.7 h and the “median survival time (hr) treated” value is 10.7 h.

As for `NCCOc1cc(C(=O)Nc2cc(OCCN)c3ccccc3n2)nc(C(=O)Nc2cc(OCCN)c3ccccc3n2)c1` [Pyridostatin trifluoroacetate salt], in test [1], the IC50 was found to be 4 µM and the inhibition at 100 µM is roughly 80%. Besides, at BoNT/A, the “median survival time (hr) treated” value is 22.17 h and the “Therapeutic effect versus solvent (log-rank test)” value is recorded as “did not exert beneficial therapeutic effects”.

Regarding `C[C@@](Cc1ccc(O)c(O)c1)(NN)C(=O)O` [carbidopa], the “Inhibition of the interaction between HC/A fragment and SV2C” value in test [1] is “failed to inhibit”.
